Measurements as given in patent US20180230160A1, “2-AMINO-7A-PHENYL-3,4,4A,5,7,7A-HEXAHYDROFURO[3,4-B]PYRIDINES AS BACE1 INHIBITORS” (H. Lundbeck A/S, priority 2015, published 2018).
Like-named read-outs stand apart in the source and are kept apart here.

How the values were obtained:
Aβ40 peptide = assay: Assessment of Aβ peptide levels in rat brain and plasma following BACE1 inhibition (Aβ40 ELISA); assay type: in vivo; conditions: 3 hours post dose, vs vehicle
Description: Assessment of Aβ Peptide Levels in Rat Brain and Plasma Following BACE1 Inhibition. Animals.
(§1) Young adult Male Sprague Dawley rats of approximately 250 g weight were purchased from Charles River and received 0-30 mg/kg of vehicle (10% HP betaCD+1M MeSO4, pH 2.5) or test compounds (dissolved in vehicle) only by oral gavage (p.o). The compounds are dosed at a volume of 5 ml/kg. Cohorts of 5-10 animals were established for each treatment condition.
(§2) At T=180 minutes after initial dosing the animals were stunned and decapitated with a guillotine. Trunk-blood was sampled in EDTA coated tubes after decapitation of the animal. The blood was centrifuged at 2200G at 4° C. for 15 minutes and the plasma was collected and frozen at −80° C. The blood was aliquoted for Aβ ELISA and DMPK analysis. Immediately following sacrifice, the brain was extracted and split into 2 halves. The right hemibrains were snap frozen on dry ice and stored at −80° C. The left half was dissected; with the front forebrain taken for Aβ ELISA and the remainder used for DMPK analysis. These samples were also snap frozen on dry ice and stored at −80° C. until use for analysis.
The cortex samples were thawed slightly on wet ice before they were homogenized with a small volume dispersing instrument (T10 basic ULTRA-TURRAX®) which was set at speed 5 for approximately 5-7 sec. The tissue was processed in a 10 times volume of the weight, for example 100 mg of tissue was homogenized in 1000 μL of Homogenization buffer. Homogenization buffer: 50 ml Milli Q water+50 nM NaCl+0.2% Diethylamin (DEA)+1 tablet of Complete Protease inhibitor cocktail+1 nM 4-(2-aminoethyl) benzenesulfonyl fluoride hydrochloride irreversible serine protease inhibitor (AEBSF).
After homogenization 450 μL aliquots of the samples are collected into a 1.5 ml Eppendorf tube and placed on wet ice, 0.5% NP-40 (50 ul) was added to all samples and then they were incubated on ice for 30 min. After which all samples were sonicated using an Ultrasonic homogenizer with 20 kHz homogeneous sound (SONOPLUS HD2070, Bandelin Electronic) 10 pulse set at 12-13% power to extract all the Aβ species. The samples were then centrifuged (Ole Dich 157 MPRF Micro centrifuge) at 20000G for 20 minutes at 4° C. After centrifugation 285 μL of the supernatant was pipetted into 600 μL microtubes tubes and neutralized with 15 μL of 1M Tris-HCL buffer.
WAKO 294-62501 Human/Rat Abeta amyloid (40) kit was used for all ELISA analyses. 30 μL plasma samples or 30 μL of the cortex supernatants generated as described above were placed in 600 μL microtubes tubes on wet ice. To this 30 μL of 8M urea (AppliChem A1049, 9025) was added to generate a 2-fold dilution. Both plasma and cortex supernatants were incubated on ice for 30 min. Standard rows were prepared from the standard peptide stock provided in the kit and standard diluent containing 1.6M urea (200 μL 8M urea+800 μL of standard diluent) and 0.8M urea (400 μL 8M Urea+3600 μL Standard diluent). A serial 2-fold dilution of Aβ40 from 100 pmol/ml to 0 pmol/L was prepared for the assay.
After incubation with urea, all samples were further diluted by addition of 5 times standard diluent from the Kit. This was done by adding 240 μL Standard Diluent to 60 μL sample/urea mixture, which was then mixed well. 100 μL of each diluted sample was pipetted into designated wells of the ELISA plate in duplicates. The plate was then covered and incubated overnight at 4° C. The following day, the ELISA kit was brought to room temperature before use. The incubated plate was washed 5 times with the 20× washing solution diluted in Milli Q water. 100 μL HRP-conjugate was applied to each well, and the plate was covered and incubates at 4° C. for 1 hr. The wash was repeated again for 5 times. 100 μL 3,3′,5,5′-Tetramethylbenzidine (TMB) solution was applied to each well and the plate was covered and incubated in the dark at room temperature for 30 minutes. […]

[1] = Compound exposure in rat brain and plasma after oral dosing (DMPK analysis); assay type: in vivo; conditions: male, Sprague Dawley, 3 hours post dose; for concentration at 3 h: read-out: Exp (exposure); for Kp at 3 h: brain/plasma, read-out: Brain/Plasma ratio
Description: as §1, §2
The results of the administration of representative Compounds of Examples 1, 2, 5, […], of brain and plasma samples collected at 3 hours post dose and then following exposures, as described above, are tabulated below.

human BACE1 = human BACE1 (Homo sapiens, UniProt P56817); assay: BACE1 binding assay (SPA-based radioligand binding); set-up: biotin (biotinylated form); made in house; host or cells: Freestyle HEK293 cells; conditions: pH 4.5, 10 nM radioligand, Ki=IC50/(1+L/Kd)
Sequence of human BACE1 (P56817 46-501): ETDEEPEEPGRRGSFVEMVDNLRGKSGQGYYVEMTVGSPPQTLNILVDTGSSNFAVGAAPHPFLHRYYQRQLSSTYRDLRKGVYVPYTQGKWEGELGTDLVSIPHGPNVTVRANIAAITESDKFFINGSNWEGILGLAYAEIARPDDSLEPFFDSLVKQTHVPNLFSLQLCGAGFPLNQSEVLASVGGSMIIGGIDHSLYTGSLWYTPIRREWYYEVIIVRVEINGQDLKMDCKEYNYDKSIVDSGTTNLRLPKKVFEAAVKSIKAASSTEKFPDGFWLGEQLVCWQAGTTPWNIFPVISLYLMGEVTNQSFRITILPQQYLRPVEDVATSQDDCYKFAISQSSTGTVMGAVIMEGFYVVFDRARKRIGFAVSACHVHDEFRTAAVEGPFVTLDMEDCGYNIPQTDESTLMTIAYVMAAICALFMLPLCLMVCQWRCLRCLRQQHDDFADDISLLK
Procedure, shortened: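 SPA radioligand displacement: biotinylated human BACE1 (HEK293-expressed, 6 nM final) with 10 nM [3H]-isophthalamide ligand and streptavidin beads in 50 mM sodium acetate pH 4.5, 50 mM NaCl, 0.03% Tween-20, 1 h at room temperature. Non-specific binding defined with 1 μM reference inhibitor. IC50 converted to Ki via Cheng-Prusoff using saturation-derived Kd.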

| concentration at 3 h ([1]; Brain, 10 mg/kg p.o.) | concentration at 3 h ([1]; Brain, 30 mg/kg p.o.) | concentration at 3 h ([1]; Plasma, 10 mg/kg p.o.) | concentration at 3 h ([1]; Plasma, 30 mg/kg p.o.) | Kp at 3 h ([1]; 10 mg/kg p.o.) | Kp at 3 h ([1]; 30 mg/kg p.o.) | Ki (human BACE1) | SMILES | Aβ40 reduction (Aβ40 peptide; Brain, 10 mg/kg p.o.) | Aβ40 reduction (Aβ40 peptide; Brain, 30 mg/kg p.o.) | Aβ40 reduction (Aβ40 peptide; Plasma, 10 mg/kg p.o.) | Aβ40 reduction (Aβ40 peptide; Plasma, 30 mg/kg p.o.) |
| --- | --- | --- | --- | --- | --- | --- | --- | --- | --- | --- | --- |
| 153 ng/g | 776 ng/g | 399 ng/g | 1830 ng/g | 0.38 | 0.42 | 51 nM | [2H]C([2H])([2H])Oc1ccc(C(=O)Nc2ccc(F)c([C@]34COC[C@H]3C[C@@](F)(CF)C(N)=N4)c2)nc1 [Example 22, N-(3-((3S,4aS,7aS)-2-amino-3-fluoro-3-(fluoromethyl)-3,4,4a,5-tetrahydrofuro[3,4-b]pyridin-7a-yl)-4-fluorophenyl)-5-(methoxy-d3)picolinamide] | 23% | 48% | 33% | 43% |
| 93 ng/g | 479 ng/g | 88 ng/g | 239 ng/g | 1.05 | 2.01 | 11 nM | COc1cnc(C(=O)Nc2ccc(F)c([C@]34COC[C@@]3(F)C[C@@](C)(F)C(N)=N4)c2)cn1 [Example 7, N-(3-((3R,4aR,7aS)-2-amino-3,4a-difluoro-3-methyl-3,4,4a,5,7,7a-hexahydrofuro[3,4-b]pyridin-7a-yl)-4-fluorophenyl)-5-methoxypyrazine-2-carboxamide] | 48% | 64% | 42% | 50% |
